Measured values: patent US9073830B2 (Hyundai Pharm Co., Ltd., priority 2011, dated 2015)

Tests used:
[1] = biological target: T1, human 11β-HSD1 (Homo sapiens, UniProt P28845); experiment: Enzyme activity analysis on human 11β-HSD1 (HTRF cortisol, liver microsomes); assay type: biochemical; details: first value of cell
T1 construct: 100 ug/ml human/mouse liver microsomes; from tissue; host or cells: human liver microsomes
Summary of the method: (§1)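 Cortisol generated by mouse or human liver microsome 11β-HSD1 during 2 h at 37° C., measured by HTRF competition (cryptate anti-cortisol antibody, d2-cortisol, 2 h room temperature) against a cortisol standard curve. IC50 from percent inhibition versus no-compound control.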

[2] = biological target: T2, mouse 11β-HSD1 (Mus musculus, UniProt P50172); experiment: Enzyme activity analysis on mouse 11β-HSD1 (HTRF cortisol, liver microsomes); assay type: biochemical; details: second value of cell
T2 construct: 100 ug/ml human/mouse liver microsomes; from tissue; host or cells: mouse liver microsomes
T2 sequence (P50172 whole entry): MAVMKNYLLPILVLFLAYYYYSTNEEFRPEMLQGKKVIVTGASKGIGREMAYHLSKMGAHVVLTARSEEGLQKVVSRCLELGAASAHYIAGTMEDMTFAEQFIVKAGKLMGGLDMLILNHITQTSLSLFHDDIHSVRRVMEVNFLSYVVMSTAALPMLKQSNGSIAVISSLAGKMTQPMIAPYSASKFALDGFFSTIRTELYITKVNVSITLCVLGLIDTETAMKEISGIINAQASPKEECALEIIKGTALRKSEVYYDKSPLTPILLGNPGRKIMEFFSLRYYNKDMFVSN
Summary of the method: as §1

T1 sequence (P28845 whole entry): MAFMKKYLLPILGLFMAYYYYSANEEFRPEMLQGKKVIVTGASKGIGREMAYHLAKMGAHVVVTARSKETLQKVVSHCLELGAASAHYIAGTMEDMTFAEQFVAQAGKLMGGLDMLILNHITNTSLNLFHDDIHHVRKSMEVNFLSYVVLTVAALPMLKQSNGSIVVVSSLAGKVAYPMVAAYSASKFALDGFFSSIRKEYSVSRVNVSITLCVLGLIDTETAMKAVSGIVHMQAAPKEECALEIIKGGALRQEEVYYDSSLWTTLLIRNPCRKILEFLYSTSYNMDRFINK

Row | IC50 [1] [µM] | IC50 [2] [µM] | SMILES
1 | 0.009 | 0.014 | CC(C)(NS(=O)(=O)c1ccc(F)cc1Br)C(=O)NC1C2CC3CC1CC(C(N)=O)(C3)C2 (centres unmarked) [compound 101, N-4-(2-(2-bromo-4-fluorophenylsulfonamido)-2-methylpropanamido)adamantane-1-carboxyamide]
2 | 0.116 | 0.224 | CC(C)(NS(=O)(=O)c1cc(F)c(F)c(F)c1)C(=O)NC1C2CC3CC1CC(C(N)=O)(C3)C2 (centres unmarked) [compound 118, N-4-(2-(3,4,5-trifluorophenylsulfonamido)-2-methylpropanamido)adamantane-1-carboxy amide]
3 | 0.013 | 0.007 | CN(C(C)(C)C(=O)NC1C2CC3CC1CC(C(N)=O)(C3)C2)S(=O)(=O)c1cccc2cccnc12 (centres unmarked) [compound 188, N-4-(2-methyl-2-(N-methylquinoline-8-sulfonamido)propanamido)adamantane-1-carboxyamide]
4 | 1.3 | 0.505 | NC(=O)C12CC3CC(C1)C(NC(=O)C1(NS(=O)(=O)c4ccc([N+](=O)[O-])c(C(F)(F)F)c4)CCC1)C(C3)C2 (centres unmarked) [compound 147, N-4-(1-(3-trifluoromethyl-4-nitrophenylsulfonamido)cyclobutanecarboxyamido)adamantane-1-carboxyamide]
5 | 0.019 | 0.132 | NC(=O)C12CC3CC(C1)C(NC(=O)C1(NS(=O)(=O)c4ccccc4C(F)(F)F)CCCCC1)C(C3)C2 (centres unmarked) [compound 181, N-4-(1-(2-trifluoromethylphenylsulfonamido)cyclohexanecarboxyamido)adamantane-1-carboxyamide]
6 | 0.511 | 0.914 | CC(C)(NS(=O)(=O)c1cccc([N+](=O)[O-])c1)C(=O)NC1C2CC3CC(C2)CC1C3 (centres unmarked) [compound 66, N-(adamantane-2-yl)-2-methyl-2-(3-nitrophenylsulfonamido)propanamide]
7 | 0.017 | 0.042 | CC(C)(NS(=O)(=O)c1cccc(Cl)c1Cl)C(=O)NC1C2CC3CC1CC(O)(C3)C2 (centres unmarked) [compound 73, N-(5-hydroxyadamantane-2-yl)-2-methyl-2-(2,3-dichlorophenylsulfonamido)propanamide]
8 | 0.199 | 0.621 | CC(C)(NS(=O)(=O)c1ccc(F)cc1F)C(=O)NC1C2CC3CC(C2)CC1C3 (centres unmarked) [compound 58, N-(adamantane-2-yl)-2-methyl-2-(2,4-difluorophenylsulfonamido)propanamide]
9 | 0.032 | 0.266 | NC(=O)C12CC3CC(C1)C(NC(=O)C1(NS(=O)(=O)c4ccccc4N)CCCCC1)C(C3)C2 (centres unmarked) [compound 220, N-4-(1-(2-aminophenylsulfonamido)cyclohexanecarboxyamido)adamantane-1-carboxyamide]
10 | 0.012 | 0.006 | COc1cccc(F)c1S(=O)(=O)N(C)C(C)(C)C(=O)NC1C2CC3CC1CC(C(N)=O)(C3)C2 (centres unmarked) [compound 194, N-4-(2-(2-methoxy-6-fluoro-N-methylphenylsulfonamido)-2-methylpropanamido)adamantane-1-carboxyamide]
11 | 1.17 | 2.14 | CC(C)(NS(=O)(=O)CCc1cccc2ccccc12)C(=O)NC1C2CC3CC(C2)CC1C3 (centres unmarked) [compound 52, N-(adamantane-2-yl)-2-methyl-2-(2-(naphthalene-1-yl)ethylsulfonamido)propanamide]
12 | 0.223 | 0.904 | CC(C)(NS(=O)(=O)c1ccc(F)c(Cl)c1)C(=O)NC1C2CC3CC(C2)CC1C3 (centres unmarked) [compound 54, N-(adamantane-2-yl)-2-methyl-2-(4-fluoro-3-chlorophenylsulfonamido)propanamide]

Continued, compound first:

Row | SMILES | IC50 [1] [µM] | IC50 [2] [µM]
13 | Cc1cc(C)cc(S(=O)(=O)NC(C)(C)C(=O)NC2C3CC4CC2CC(C(N)=O)(C4)C3)c1 (centres unmarked) [compound 91, N-4-(2-(3,5-dimethylphenylsulfonamido)-2-methylpropanamido)adamantane-1-carboxyamide] | 0.016 | 0.107
14 | CCN(C(C)(C)C(=O)NC1C2CC3CC1CC(C(N)=O)(C3)C2)S(=O)(=O)c1ccccc1F (centres unmarked) [compound 211, N-4-(2-(2-fluoro-N-ethylphenylsulfonamido)-2-methylpropanamido)adamantane-1-carboxyamide] | 0.006 | 0.079
15 | CC(C)(NS(=O)(=O)c1c(F)cccc1F)C(=O)NC1C2CC3CC(C2)CC1C3 (centres unmarked) [compound 41, N-(adamantane-2-yl)-2-methyl-2-(2,6-difluorophenylsulfonamido)propanamide] | 0.041 | 0.156
16 | CC(C)(NS(=O)(=O)c1ccccc1Cl)C(=O)NC1C2CC3CC1CC(C(=O)NC1CCCCC1)(C3)C2 (centres unmarked) [compound 233, 4-[2-(2-chloro-benzenesulfonylamino)-2-methyl-propionylamino]-adamantane-1-carboxylic acid cyclohexylamide] | > 2.5 | > 2.5
17 | CC(C)(NS(=O)(=O)c1ccccc1C(F)(F)F)C(=O)NC1C2CC3CC(C2)CC1C3 (centres unmarked) [compound 13, N-(adamantane-2-yl)-2-methyl-2-(2-trifluoromethylphenylsulfonamido)propanamide] | 0.032 | 0.267
18 | CCN(C(C)(C)C(=O)NC1C2CC3CC1CC(C(N)=O)(C3)C2)S(=O)(=O)c1c(F)cccc1F (centres unmarked) [compound 213, N-4-(2-(2,6-difluoro-N-ethylphenylsulfonamido)-2-methylpropanamido)adamantane-1-carboxyamide] | 0.005 | 0.235
19 | COc1cccc(S(=O)(=O)NC(C)(C)C(=O)NC2C3CC4CC(C3)CC2C4)c1 (centres unmarked) [compound 29, N-(adamantane-2-yl)-2-methyl-2-(3-methoxyphenylsulfonamido)propanamide] | 0.216 | 0.329
20 | CC(C)(NS(=O)(=O)c1c(Cl)cc(Cl)cc1Cl)C(=O)NC1C2CC3CC1CC(C(N)=O)(C3)C2 (centres unmarked) [compound 112, N-4-(2-(2,4,6-trichlorophenylsulfonamido)-2-methylpropanamido)adamantane-1-carboxy amide] | 0.024 | 0.011
21 | COc1ccc(S(=O)(=O)NC(C)(C)C(=O)NC2C3CC4CC(C3)CC2C4)c(OC)c1 (centres unmarked) [compound 47, N-(adamantane-2-yl)-2-methyl-2-(2,4-dimethoxyphenylsulfonamido)propanamide] | 0.082 | 1.92
22 | NC(=O)C12CC3CC(C1)C(NC(=O)C1(NS(=O)(=O)c4c(Cl)cccc4Cl)CC1)C(C3)C2 (centres unmarked) [compound 134, N-4-(1-(2,6-dichlorophenylsulfonamido)cyclopropanecarboxyamido)adamantane-1-carboxyamide] | 0.021 | 0.021
23 | CC(C)(NS(=O)(=O)Cc1ccccc1Cl)C(=O)NC1C2CC3CC1CC(C(N)=O)(C3)C2 (centres unmarked) [compound 98, N-4-(2-((2-chlorophenyl)methylsulfonamido)-2-methylpropanamido)adamantane-1-carboxyamide] | > 2.5 | > 2.5
24 | NC(=O)C12CC3CC(C1)C(NC(=O)C1(NS(=O)(=O)c4ccc(Br)cc4Cl)CCC1)C(C3)C2 (centres unmarked) [compound 162, N-4-(1-(2-chloro-4-bromophenylsulfonamido)cyclobutanecarboxyamido)adamantane-1-carboxyamide] | 0.04 | 0.453
25 | NC(=O)C12CC3CC(C1)C(NC(=O)C1(NS(=O)(=O)c4ccccc4)CCC1)C(C3)C2 (centres unmarked) [compound 148, N-4-(1-(phenylsulfonamido)cyclobutanecarboxyamido)adamantane-1-carboxyamide] | 0.163 | 0.056
26 | O=C(NC1C2CC3CC(C2)CC1C3)C1(NS(=O)(=O)c2ccccc2)CCC1 (centres unmarked) [compound 139] | 0.547 | 0.178
27 | NC(=O)C12CC3CC(C1)C(NC(=O)C1(NS(=O)(=O)c4ccccc4Cl)CCCCC1)C(C3)C2 (centres unmarked) [compound 179, N-4-(1-(2-chlorophenylsulfonamido)cyclohexanecarboxyamido)adamantane-1-carboxyamide] | 0.008 | 0.037
28 | NC(=O)C12CC3CC(C1)C(NC(=O)C1(NS(=O)(=O)c4c(Cl)cccc4Cl)CCCC1)C(C3)C2 (centres unmarked) [compound 175, N-4-(1-(2,6-dichlorophenylsulfonamido)cyclopentanecarboxyamido)adamantane-1-carboxyamide] | 0.006 | 0.003
29 | CC(C)(NS(=O)(=O)c1c(Cl)cccc1Cl)C(=O)NC1C2CC3CC(C2)CC1C3 (centres unmarked) [compound 45, N-(adamantane-2-yl)-2-methyl-2-(2,6-dichlorophenylsulfonamido)propanamide] | 0.009 | 0.02
30 | Cc1ccccc1S(=O)(=O)N(C)C(C)(C)C(=O)NC1C2CC3CC1CC(C(N)=O)(C3)C2 (centres unmarked) [compound 196] | 0.003 | 0.005
31 | Cc1cccc(S(=O)(=O)NC(C)(C)C(=O)NC2C3CC4CC(C3)CC2C4)c1 (centres unmarked) [compound 28, N-(adamantane-2-yl)-2-methyl-2-(3-methylphenylsulfonamido)propanamide] | 0.133 | 0.437
32 | Cc1ccc([N+](=O)[O-])cc1S(=O)(=O)NC(C)(C)C(=O)NC1C2CC3CC(C2)CC1C3 (centres unmarked) [compound 40, N-(adamantane-2-yl)-2-methyl-2-(5-nitro-2-methylphenylsulfonamido)propanamide] | 0.098 | 1.85
33 | CC(C)(NS(=O)(=O)c1cc(C(F)(F)F)cc(C(F)(F)F)c1)C(=O)NC1C2CC3CC(C2)CC1C3 (centres unmarked) [compound 49, N-(adamantane-2-yl)-2-methyl-2-(3,5-ditrifluoromethylphenylsulfonamido)propanamide] | 1.35 | > 2.5
34 | CC(C)NC(=O)C12CC3CC(C1)C(NC(=O)C(C)(C)NS(=O)(=O)c1ccccc1Cl)C(C3)C2 (centres unmarked) [compound 235, 4-[2-(2-chloro-benzenesulfonylamino)-2-methyl-propionylamino]-adamantane-1-carboxylic acid isopropylamide] | > 2.5 | > 2.5
